Test results reported in patent US7393846B2, “Heterocyclic compounds useful for the treatment of inflammatory and allergic disorders” (Glenmark Pharmaceuticals, S.A., priority 2003, dated 2008).
Counter-ions that a name gives are not always drawn. Like-named read-outs stand apart in the source and are kept apart here.

Key:
[1] = biological target: PDE4 enzyme; assay: Inhibition of Phosphodiesterase Enzymes (PDE4), [3H]cAMP hydrolysis assay; type: biochemical; conditions: for IC50: PDE4 inhibition, 1 μM cAMP, 34° C., 20 minutes
Description: Inhibition of Phosphodiesterase Enzymes (PDE4)
In this assay, PDE4 enzyme converts [^3H] cAMP to the corresponding [^3H] 5′-AMP in proportion to the amount of PDE4 present. The [^3H] 5′-AMP then was quantitatively converted to free [^3H] adenosine and phosphate by the action of snake venom 5′-nucleotidase.
The assay was performed with modification of the method of Thompson and Appleman (Biochemistry; 1971; 10; 311-316) and Schwartz and Passoneau (Proc. Natl. Acad. Sci. U.S.A. 1974; 71; 3844-3848), both references incorporated herein by reference in their entirety, at 34° C. In a 200 ul total reaction mixture, the reaction mixture contained 12.5 mM of Tris, 5 mM MgCl2, 1 μM cAMP (cold) and ^3H cAMP (0.1 uCi), (Amersham). […] Drug samples were then added in the reaction mixture (25 μt/tube). The assay was initiated by addition of enzyme mix (75 μl) and the mixture was incubated for 20 minutes at 34° C. The reaction was stopped by boiling the tubes for 2 mins at 100° C. in a water bath. After cooling on ice for 5 minutes and addition of 50 ug/reaction of 5′-nucleotidase snake venom from Crotalus atrox incubation was carried out again for 20 min. at 34° C. The unreacted substrate was separated from (^3H) Adenosine by addition of Dowex AG 1-X8 (Biorad Lab), (400 ul) which was prequilibrated (1:1:1) in water and ethanol. Reaction mixture was then thoroughly mixed, placed on ice for 15 minutes, vortexed and centrifuged at 14,000 r.p.m. for 2 mins. After centrifugation, a sample of the supernatant was taken and added in 24 well optiplates containing Scintillant (1 ml) and mixed well. The samples in the plates were then determined for radioactivity in a Top Counter and the PDE4 activity was estimated. PDE4 enzyme was present in quantities that yield <30% total hydrolysis of substrate (linear assay conditions).
Results were expressed as percent inhibition (IC50) in nM concentrations. The IC50 values were determined from the concentration curves by nonlinear regression analysis.

[2] = test system: PDE4; assay: EC50 of the PDE4 results table (method not given)

Row | Compound | IC50 [1] [nM] | EC50 [2] [nM] | melting point [°C] | percent inhibition ([1]; PDE4 inhibition at 1 uM) [% at 1 uM] | IC50 ([1]; sodium salt) [nM] | EC50 ([2]; sodium salt) [nM]
1 | COc1ccc(C(=O)Nc2c(Cl)cncc2Cl)c2c1oc1ccc(NC(=O)OCC3CC3)cc12 [Example 18, N-(3,5-dichloropyrid-4-yl)-4-methoxy-8-cyclopropylmethoxycarboxamido-dibenzo[b,d]furan-1-carboxamide] | 3.47 | 19.1 | 272 | – | – | –
2 | COc1ccc(NC(=O)c2ccc(OC)c3oc4ccc(NC(C)=O)cc4c23)cc1 [Example 42, N1-(4-methoxyphenyl)-4-methoxy-8-acetamido-dibenzo[b,d]furan-1-carboxamide] | 959 | – | 285 | – | – | –
3 | CC(=O)Nc1ccc2oc3c(OC(F)F)ccc(C(=O)Nc4c(Cl)cncc4Cl)c3c2c1 [Example 34, N-(3,5-dichloropyrid-4-yl)-4-difluoromethoxy-8-acetamido-dibenzo[b,d]furan-1-carboxamide] | 3.55 | 14.8 | 234 | – | – | –
4 | CCN(CC)C(=O)Nc1ccc2oc3c(OC)ccc(C(=O)Nc4c(Cl)cncc4Cl)c3c2c1 [Example 20, N-(3,5-dichloropyrid-4-yl)-4-methoxy-8-N,N-diethylaminocarboxamido-dibenzo[b,d]furan-1-carboxamide] | 10.3 | 8.29 | > 250 | – | – | –
5 | COc1ccc(C(=O)Nc2c(Cl)cncc2Cl)c2c1oc1ccc(NC(=O)C(F)(F)F)cc12 [Example 14, N-(3,5-dichloropyrid-4-yl)-4-methoxy-8-trifluoroacetamido-dibenzo[b,d]furan-1-carboxamide] | 7.01 | 14.1 | > 300 | – | – | –
6 | COc1ccc(C(=O)Nc2ccccc2)c2c1oc1ccc(NC(C)=O)cc12 [Example 41, N1-phenyl-4-methoxy-8-acetamido-dibenzo[b,d]furan-1-carboxamide] | 156 | – | 252 | – | – | –
7 | COc1ccc(C(=O)Nc2c(Cl)cncc2Cl)c2c1oc1ccc(NC(C)=O)cc12 [Example 04, N-(3,5-dichloropyrid-4-yl)-4-methoxy-8-acetamido-dibenzo[b,d]furan-1-carboxamide] | 1.18 | 13.6 | 252 | – | – | –
8 | COc1ccc(C(=O)Nc2cccnc2)c2c1oc1ccc(NC(C)=O)cc12 [Example 46, N1-(pyrid-3-yl)-4-methoxy-8-acetamido-dibenzo[b,d]furan-1-carboxamide] | 134 | – | > 250 | – | – | –
9 | CNC(=O)Nc1ccc2oc3c(OC)ccc(C(=O)Nc4c(Cl)cncc4Cl)c3c2c1 [Example 29, N-(3,5-dichloropyrid-4-yl)-4-methoxy-8-methylamino carboxamido-dibenzo[b,d]furan-1-carboxamide] | 2.14 | 19.3 | – | – | – | –
10 | COc1ccc(C(=O)Nc2c(Cl)cncc2Cl)c2c1oc1ccc(NS(=O)(=O)N(C)C)cc12 [Example 02, N-(3,5-dichloropyrid-4-yl)-4-methoxy-8-(N,N-dimethylsulphonamido)-dibenzo[b,d]furan-1-carboxamide] | 1.03 | 2.07 | – | – | – | –
11 | COc1ccc(C(=O)Nc2c(Cl)cncc2Cl)c2c1oc1ccc(NS(C)(=O)=O)cc12 [Example 01, N-(3,5-dichloropyrid-4-yl)-4-methoxy-8-methanesulfonamido-dibenzo[b,d]furan-1-carboxamide] | 0.506 | 8.57 | – | – | – | –
12 | COc1ccc(C(=O)Nc2c(Cl)cncc2Cl)c2c1oc1ccc(NC(=O)N3CCN(C)CC3)cc12 [Example 22, N-(3,5-dichloropyrid-4-yl)-4-methoxy-8-(N-methylpiperazin-4-ylcarboxamido)-dibenzo[b,d]furan-1-carboxamide] | 1.28 | 9.34 | – | – | – | –
13 | CCOC(=O)C(=O)Nc1ccc2oc3c(OC(F)F)ccc(C(=O)Nc4c(Cl)cncc4Cl)c3c2c1 [Example 37, N-(3,5-dichloropyrid-4-yl)-4-difluoromethoxy-8-ethoxycarbonylcarboxamido-dibenzo[b,d]furan-1-carboxamide] | 21.5 | > 278 | – | – | – | –
14 | CCOC(=O)CNC(=O)Nc1ccc2oc3c(OC)ccc(C(=O)Nc4c(Cl)cncc4Cl)c3c2c1 [Example 50, N-(3,5-dichloropyrid-4-yl)-4-methoxy-8-(2-ethoxy-2-oxo-ethylaminocarbonylamino)-dibenzo[b,d]furan-1-carboxamide] | 9.93 | 147 | > 250 | – | – | –
15 | COc1ccc(C(=O)Nc2ccncc2)c2c1oc1ccc(NC(C)=O)cc12 [Example 49, N-(pyrid-4-yl)-4-methoxy-8-acetamido-dibenzo[b,d]furan-1-carboxamide] | 13.2 | – | 267 to 268 | – | – | –
16 | CCOC(=O)Nc1ccc2oc3c(OC)ccc(C(=O)Nc4c(Cl)cncc4Cl)c3c2c1 [Example 15, N-(3,5-dichloropyrid-4-yl)-4-methoxy-8-ethoxycarboxamido-dibenzo[b,d]furan-1-carboxamide] | 15.1 | – | 274 | – | – | –
17 | COc1ccc(C(=O)Nc2c(Cl)cncc2Cl)c2c1oc1ccc(NC(=O)NC3CCCC3)cc12 [Example 21, N-(3,5-dichloropyrid-4-yl)-4-methoxy-8-cyclopentylaminocarboxamido-dibenzo[b,d]furan-1-carboxamide] | 1.19 | 23.8 | – | – | – | –
18 | CCOC(=O)CNc1ccc2oc3c(OC)ccc(C(=O)Nc4c(Cl)cncc4Cl)c3c2c1 [Example 52, N-(3,5-dichloropyrid-4-yl)-4-methoxy-8-(2-ethoxy-2-oxo-ethylamino)-dibenzo[b,d]furan-1-carboxamide] | 8.13 | 821 | – | – | – | –
19 | CCNC(=S)Nc1ccc2oc3c(OC)ccc(C(=O)Nc4c(Cl)cncc4Cl)c3c2c1 [Example 44, N-(3,5-dichloropyrid-4-yl)-4-methoxy-8-(ethylaminothiocarboxamido)-dibenzo[b,d]furan-1-carboxamide] | 1.72 | 3.93 | 260 | – | – | –
20 | COc1ccc(C(=O)NCc2ccccc2)c2c1oc1ccc(NC(C)=O)cc12 [Example 43, N1-benzyl-4-methoxy-8-acetamido-dibenzo[b,d]furan-1-carboxamide] | – | – | 264 to 265 | 17.93 | – | –
21 | COc1ccc(C(=O)Nc2c(Cl)cncc2Cl)c2c1oc1ccc(NC(=O)C(=O)O)cc12 [Example 10, N-(3,5-dichloropyrid-4-yl)-4-methoxy-8-hydroxycarbonylcarboxamido-dibenzo[b,d]furan-1-carboxamide sodium salt] | – | – | – | – | 1.85 | 38.2
